The target of assay [1] is Programmed cell death protein 1/Programmed cell death 1 ligand 1 (Homo sapiens, UniProt Q9NZQ7). The assay is described as follows: Inhibition of PD-1/PDL1 protein-protein interaction (unknown origin) by HTRF assay. The format is protein-complex assay.
Assay [2] relates to B16-F10. The assay is described as follows: Antiproliferative activity against mouse B16-F10 cells assessed as reduction in cell viability incubated for 48 hrs by CCK8 assay. The class given is functional, cell-based. The note with it: B16-F10, 48 h.
Assay [3] concerns A549. The assay is described as follows: Antiproliferative activity against human A549 cells assessed as reduction in cell viability incubated for 48 hrs by CCK8 assay. The format is functional, cell-based. The note with it: A549, 48 h.
The subject of assay [4] is Jurkat. The assay is described as follows: Antiproliferative activity against human jurkat cells assessed as reduction in cell viability incubated for 48 hrs by CCK8 assay. The format is functional, cell-based.
Assay [5] deals with NCI-H1299. The assay is described as follows: Antiproliferative activity against human H1299 cells assessed as reduction in cell viability incubated for 48 hrs by CCK8 assay. Conditions: NCI-H1299, 48 h. The format is functional, cell-based.
In assay [6] the test system is MDA-MB-231. The assay is described as follows: Antiproliferative activity against human MDA-MB-231 cells assessed as reduction in cell viability incubated for 48 hrs by CCK8 assay. The format is functional, cell-based. Conditions: MDA-MB-231, 48 h.
Assay [7] has as its target T1, Protein cereblon/Programmed cell death 1 ligand 1 (Homo sapiens) (UniProt Q9NZQ7+Q96SW2). Kind of assay: Protac like activity at CRBN/PD-L1 in human MDA-MB-231 cells assessed as reduction in cell surface PD-L1 expression at 1 uM measured after 24 hrs by Western blotting analysis relative to control. The format is functional, cell-based. Further details: scale not given: the % may be the effect or the level left.

Assay [8] is filed under the species Homo sapiens. The assay is described as follows: Inhibition of PD1/PDL1 protein-protein interaction in human PBMC-derived CD3-positive T cells co-cultured with human Hep3B cells expressing human PDL1/OS-8 assessed as increase in IFN-gamma secretion measured after 72 hrs by ELISA relative to control. Conditions: dose 3.3-10 µM.
Assay [9] is filed under the species Homo sapiens. Kind of assay: Inhibition of PD1/PDL1 protein-protein interaction in human PBMC-derived CD3-positive T cells co-cultured with human Hep3B cells expressing human PDL1/OS-8 assessed as increase in IFN-gamma secretion at 3.3 uM measured after 72 hrs by ELISA relative to control. Further details: scale not given: the % may be the effect or the level left.

The target of assay [10] is T1, Protein cereblon/Programmed cell death 1 ligand 1 (Homo sapiens). The assay is described as follows: Protac like activity at CRBN/PD-L1 in human MDA-MB-231 cells assessed as reduction in cell surface PD-L1 expression at 10 uM measured after 24 hrs by Western blotting analysis relative to control. The format is functional, cell-based. Further details: scale not given: the % may be the effect or the level left.

Assay [11] has the same target. Kind of assay: Protac like activity at CRBN/PD-L1 in human MDA-MB-231 cells assessed as reduction in cell surface PD-L1 expression at 10 uM measured after 24 hrs by flow cytometry relative to control. The class given is functional, cell-based. Further details: scale not given: the % may be the effect or the level left.
For assay [12] the target is unchanged. The assay is described as follows: Protac like activity at CRBN/PD-L1 in human MDA-MB-231 cells assessed as reduction in cell surface PD-L1 expression at 1 to 10 uM in presence of bafilomycin lysosomal measured after 24 hrs by Western blotting analysis relative to control. The class given is functional, cell-based. Conditions: dose 1-10 µM.
For assay [13] the target is unchanged. Kind of assay: Protac like activity at CRBN/PD-L1 in human MDA-MB-231 cells assessed as reduction in cell surface PD-L1 expression at 1 to 10 uM in presence of MG132 proteasome inhibitor measured after 24 hrs by Western blotting analysis relative to control. The format is functional, cell-based. Conditions: dose 1-10 µM.

Active and inactive are the calls of the source. The calls are words filed in the database; no cut-off is given here. Some results are limits rather than exact numbers.

Programmed cell death protein 1/Programmed cell death 1 ligand 1, sequence (Q15116 whole entry): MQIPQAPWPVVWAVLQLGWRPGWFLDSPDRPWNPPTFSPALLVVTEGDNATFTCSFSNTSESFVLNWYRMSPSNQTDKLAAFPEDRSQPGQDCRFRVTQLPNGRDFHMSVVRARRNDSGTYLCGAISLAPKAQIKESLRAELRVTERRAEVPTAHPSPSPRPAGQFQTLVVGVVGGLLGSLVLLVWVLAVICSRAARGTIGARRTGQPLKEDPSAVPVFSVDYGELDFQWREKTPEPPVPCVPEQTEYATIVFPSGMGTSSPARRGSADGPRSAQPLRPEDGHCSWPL
Programmed cell death protein 1/Programmed cell death 1 ligand 1, sequence (Q9NZQ7 whole entry): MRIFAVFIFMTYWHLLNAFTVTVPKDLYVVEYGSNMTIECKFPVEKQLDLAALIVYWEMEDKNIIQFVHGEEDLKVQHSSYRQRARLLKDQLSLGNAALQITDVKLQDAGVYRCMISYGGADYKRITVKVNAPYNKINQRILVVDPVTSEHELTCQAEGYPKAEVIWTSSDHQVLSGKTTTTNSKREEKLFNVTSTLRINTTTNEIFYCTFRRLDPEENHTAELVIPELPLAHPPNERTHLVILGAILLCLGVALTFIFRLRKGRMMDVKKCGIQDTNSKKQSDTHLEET
T1 sequence (Q96SW2 whole entry, looked up): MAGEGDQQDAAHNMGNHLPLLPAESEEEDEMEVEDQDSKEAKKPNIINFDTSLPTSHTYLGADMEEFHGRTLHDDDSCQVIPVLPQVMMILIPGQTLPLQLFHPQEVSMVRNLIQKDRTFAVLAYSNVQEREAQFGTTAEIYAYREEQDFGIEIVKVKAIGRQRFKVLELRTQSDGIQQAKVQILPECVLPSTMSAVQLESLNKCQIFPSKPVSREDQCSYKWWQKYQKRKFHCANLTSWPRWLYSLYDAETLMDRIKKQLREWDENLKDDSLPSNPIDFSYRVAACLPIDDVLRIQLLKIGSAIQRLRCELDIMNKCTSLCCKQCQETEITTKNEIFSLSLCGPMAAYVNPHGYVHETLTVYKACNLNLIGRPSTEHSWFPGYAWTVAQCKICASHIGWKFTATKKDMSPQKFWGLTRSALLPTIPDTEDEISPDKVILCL
T1 sequence (Q9NZQ7 whole entry, looked up): as the sequence (Q9NZQ7 whole entry) above

In turn, `Cc1c(COc2cc(OCc3cccc(C#N)c3)c(CN3CCCCC3C(=O)O)cc2Cl)cccc1-c1ccc2c(c1)OCCO2` (configuration not stated) had an IC50 in assay [1] of 56.6 nM.

Consider `Cc1c(COc2cc(OCc3cccc(C#N)c3)c(CN3CCCCC3C(=O)NCCCNC(=O)CCC(=O)Nc3cccc4c3C(=O)N(C3CCC(=O)NC3=O)C4=O)cc2Cl)cccc1-c1ccccc1` (configuration not stated), for which the IC50 in assay [1] is > 200 nM.

Regarding `Cc1c(COc2ccc(CN3CCCCC3C(=O)N3CCN(C(=O)CCCC(=O)Nc4cccc5c4C(=O)N(C4CCC(=O)NC4=O)C5=O)CC3)cc2Br)cccc1-c1ccccc1` (configuration not stated), in assay [1], the IC50 is > 200 nM.

Molecule `Cc1c(COc2cc(OCc3cccc(C#N)c3)c(CN3CCCCC3C(=O)NCCNC(=O)CCCC(=O)Nc3ccc4c(c3)C(=O)N(C3CCC(=O)NC3=O)C4=O)cc2Cl)cccc1-c1ccccc1` (configuration not stated) yielded an IC50 in assay [1] of 102 nM.

In assay [1], `Cc1c(COc2cc(OCc3cccc(C#N)c3)c(CN3CCCCC3C(=O)NCCNc3cccc4c3C(=O)N(C3CCC(=O)NC3=O)C4=O)cc2Cl)cccc1-c1ccccc1` (configuration not stated) registered an IC50 of 118 nM.

As to `Cc1c(COc2cc(OCc3cccc(C#N)c3)c(CN3CCCCC3C(=O)NCCNC(=O)COCC(=O)Nc3cccc4c3C(=O)N(C3CCC(=O)NC3=O)C4=O)cc2Cl)cccc1-c1ccccc1` (configuration not stated), in assay [1], the IC50 was > 200 nM.

Consider `Cc1c(COc2cc(OCc3cccc(C#N)c3)c(CN3CCCCC3C(=O)NCCCCNc3cccc4c3C(=O)N(C3CCC(=O)NC3=O)C4=O)cc2Cl)cccc1-c1ccccc1` (configuration not stated), for which the IC50 was 52.8 nM in assay [1]; > 10000 nM in assay [2]; 8200 nM in assay [3]; > 10000 nM in [4]; 10500 nM in [5]; > 10000 nM in assay [6].

Regarding `Cc1c(COc2cc(OCc3cccc(C#N)c3)c(CN3CCCCC3C(=O)NCCCCCNc3cccc4c3C(=O)N(C3CCC(=O)NC3=O)C4=O)cc2Cl)cccc1-c1ccccc1` (configuration not stated), in [1], the IC50 stood at 171 nM.

As for `Cc1c(COc2ccc(CN3CCCCC3C(=O)NCCNC(=O)CCCC(=O)Nc3cccc4c3C(=O)N(C3CCC(=O)NC3=O)C4=O)cc2Br)cccc1-c1ccccc1` (configuration not stated), the IC50 in [1] was > 200 nM.

Take `Cc1c(COc2cc(OCc3cccc(C#N)c3)c(CN3CCCCC3C(=O)N3CCN(C(=O)CCC(=O)Nc4cccc5c4C(=O)N(C4CCC(=O)NC4=O)C5=O)CC3)cc2Cl)cccc1-c1ccc2c(c1)OCCO2` (configuration not stated): the IC50 in [1] was 25.2 nM; in assay [2], 7300 nM; in assay [3], 9200 nM; in [4] it was > 10000 nM; in assay [5] it was > 10000 nM; in [6] it was > 10000 nM.

`Cc1c(COc2cc(OCc3cccc(C#N)c3)c(CN3CCCCC3C(=O)NCCNC(=O)CCC(=O)Nc3cccc4c3C(=O)N(C3CCC(=O)NC3=O)C4=O)cc2Cl)cccc1-c1ccccc1` (configuration not stated): inhibition in assay [1] was half-maximal at 98.8 nM (IC50).

`Cc1c(COc2cc(OCc3cccc(C#N)c3)c(CN3CCCCC3C(=O)NCCCNc3cccc4c3C(=O)N(C3CCC(=O)NC3=O)C4=O)cc2Cl)cccc1-c1ccccc1` (configuration not stated) returned an IC50 in assay [1] of 97.3 nM.

Turning to `Cc1c(COc2cc(OCc3cccc(C#N)c3)c(CN3CCCCC3C(=O)N3CCN(C(=O)CCCC(=O)Nc4cccc5c4C(=O)N(C4CCC(=O)NC4=O)C5=O)CC3)cc2Cl)cccc1-c1ccccc1` (configuration not stated), the IC50 in assay [1] was 26.1 nM; in [2], 10800 nM; in assay [3], > 10000 nM; in assay [4], > 11700 nM; in [5], > 10000 nM; in assay [6], > 10000 nM.

Consider `Cc1c(COc2cc(OCc3cccc(C#N)c3)c(CN3CCCCC3C(=O)N3CCN(C(=O)CCCC(=O)Nc4cccc5c4C(=O)N(C4CCC(=O)NC4=O)C5=O)CC3)cc2Cl)cccc1-c1ccc2c(c1)OCCO2` (configuration not stated), for which the IC50 in assay [1] is 39.2 nM; in assay [2], > 10000 nM; in assay [3], > 10000 nM; in [4] it was > 10000 nM; in assay [5] it was > 10000 nM; in assay [6], > 10000 nM. In addition, the Activity in assay [7] was 21%; in assay [8], “Dose-dependent effect”; in [9], 215%; in [10], 35%; in assay [11], 14%. In addition, the result in assay [12] was inactive. The result in [13] was Active.

`Cc1c(COc2ccc(CN3CCCCC3C(=O)NCCCCNc3cccc4c3C(=O)N(C3CCC(=O)NC3=O)C4=O)cc2Br)cccc1-c1ccccc1` (configuration not stated): in [1], the IC50 came out at 197 nM.

In assay [1], `Cc1c(COc2cc(OCc3cccc(C#N)c3)c(CN3CCCCC3C(=O)NCCCCNC(=O)CCCC(=O)Nc3cccc4c3C(=O)N(C3CCC(=O)NC3=O)C4=O)cc2Cl)cccc1-c1ccccc1` (configuration not stated) registered an IC50 of 121 nM.

On to `Cc1c(COc2cc(OCc3cccc(C#N)c3)c(CN3CCCCC3C(=O)NCCCCCCNc3cccc4c3C(=O)N(C3CCC(=O)NC3=O)C4=O)cc2Cl)cccc1-c1ccc2c(c1)OCCO2` (configuration not stated), for which, in assay [1], the IC50 is > 200 nM.

Regarding `Cc1c(COc2cc(OCc3cccc(C#N)c3)c(CN3CCCCC3C(=O)NCCNC(=O)CCCC(=O)Nc3cccc4c3C(=O)N(C3CCC(=O)NC3=O)C4=O)cc2Cl)cccc1-c1ccc2c(c1)OCCO2` (configuration not stated), the IC50 in [1] was > 200 nM.

Consider `Cc1c(COc2cc(OCc3cccc(C#N)c3)c(CN3CCCCC3C(=O)N3CCN(C(=O)CCC(=O)Nc4cccc5c4C(=O)N(C4CCC(=O)NC4=O)C5=O)CC3)cc2Cl)cccc1-c1ccccc1` (configuration not stated), for which the IC50 in assay [1] was 44.5 nM; in assay [2] it was 11400 nM; in assay [3], > 10000 nM; in assay [4], > 10000 nM; in [5], 9700 nM; in [6], > 10000 nM.

For `Cc1c(COc2cc(OCc3cccc(C#N)c3)c(CN3CCCCC3C(=O)NCCNC(=O)COCC(=O)Nc3cccc4c3C(=O)N(C3CCC(=O)NC3=O)C4=O)cc2Cl)cccc1-c1ccc2c(c1)OCCO2` (configuration not stated), the IC50 in assay [1] was > 200 nM.

Molecule `Cc1c(COc2cc(OCc3cccc(C#N)c3)c(CN3CCCCC3C(=O)NCCNc3cccc4c3C(=O)N(C3CCC(=O)NC3=O)C4=O)cc2Cl)cccc1-c1ccc2c(c1)OCCO2` (configuration not stated) came in with an IC50 in assay [1] of 144 nM.

As to `Cc1c(COc2cc(OCc3cccc(C#N)c3)c(CN3CCCCC3C(=O)NCCCCCCNc3cccc4c3C(=O)N(C3CCC(=O)NC3=O)C4=O)cc2Cl)cccc1-c1ccccc1` (configuration not stated), the IC50 in assay [1] was > 200 nM.

`Cc1c(COc2cc(OCc3cccc(C#N)c3)c(CN3CCCCC3C(=O)NCCNC(=O)CCCC(=O)Nc3cccc4c3C(=O)N(C3CCC(=O)NC3=O)C4=O)cc2Cl)cccc1-c1ccccc1` (configuration not stated) yielded an IC50 in assay [1] of 123 nM.

In [1], `Cc1c(COc2cc(OCc3cccc(C#N)c3)c(CN3CCCCC3C(=O)NCCCNc3cccc4c3C(=O)N(C3CCC(=O)NC3=O)C4=O)cc2Cl)cccc1-c1ccc2c(c1)OCCO2` (configuration not stated) displayed an IC50 of 135 nM.

As for `Cc1c(COc2cc(OCc3cccc(C#N)c3)c(CN3CCCCC3C(=O)NCCNC(=O)CCCC(=O)Nc3ccc4c(c3)C(=O)N(C3CCC(=O)NC3=O)C4=O)cc2Cl)cccc1-c1ccc2c(c1)OCCO2` (configuration not stated), the IC50 in assay [1] was > 200 nM.

`Cc1c(COc2cc(OCc3cccc(C#N)c3)c(CN3CCCCC3C(=O)NCCCCCNC(=O)CCCC(=O)Nc3cccc4c3C(=O)N(C3CCC(=O)NC3=O)C4=O)cc2Cl)cccc1-c1ccccc1` (configuration not stated): the IC50 in assay [1] was > 200 nM.

Turning to `Cc1c(COc2cc(OCc3cccc(C#N)c3)c(CN3CCCCC3C(=O)NCCNC(=O)CCC(=O)Nc3cccc4c3C(=O)N(C3CCC(=O)NC3=O)C4=O)cc2Cl)cccc1-c1ccc2c(c1)OCCO2` (configuration not stated), the IC50 in [1] was > 200 nM.

With `Cc1c(COc2cc(OCc3cccc(C#N)c3)c(CN3CCCCC3C(=O)NCCCCNc3cccc4c3C(=O)N(C3CCC(=O)NC3=O)C4=O)cc2Cl)cccc1-c1ccc2c(c1)OCCO2` (configuration not stated), the IC50 was 103 nM in assay [1]; > 10000 nM in [2]; > 10000 nM in assay [3]; > 10000 nM in assay [4]; > 10000 nM in assay [5]; > 10000 nM in [6].

Turning to `Nc1cccc2c1C(=O)N(C1CCC(=O)NC1=O)C2=O` (configuration not stated) [POMALIDOMIDE], the IC50 in assay [1] is > 10 nM.

In [1], `Cc1c(COc2cc(OCc3cccc(C#N)c3)c(CN3CCCCC3C(=O)NCCCCCNc3cccc4c3C(=O)N(C3CCC(=O)NC3=O)C4=O)cc2Cl)cccc1-c1ccc2c(c1)OCCO2` (configuration not stated) gave an IC50 of 193 nM.

For the origin of these results see ChEMBL document CHEMBL4765316, “Discovery of novel resorcinol diphenyl ether-based PROTAC-like molecules as dual inhibitors and degraders of PD-L1” (Eur J Med Chem, 2020).
